According to patent US12708630B2, “Combined therapy of 4′-thio-5-aza-2′-deoxycytidine and Venetoclax” (PINOTBIO, INC., priority 2021, dated 2026):

Legend:
[1] = Human PK simulation / human dose projection; conditions: 16 mg/day human dose
Protocol: The human dose of NTX-301 should be divided by 3 or 4 to adjust the mouse exposure.
The 96 mg/day must be divided by 3 or 4, resulting in 24 to 32 mg/day.
This was a safe and effective dose in mice.
Furthermore, based on the results of the combination with Venetoclax in the mouse model, an effective dose of 0.5 to 1.0 mg/kg was determined, which translates to a human dose of 8 to 16 mg+Venetoclax.

[2] = Pharmacokinetic evaluation in Mice (Table 3); assay type: in vivo; conditions: for AUC(0-inf) / AUC(0-t) / Cmax / Tmax / half-life: mouse, in vivo, Mice; for half-life: read-out: T½ (converted)
Protocol: (§1) Aza-T-dCyd was administered orally and intravenously at various concentrations to Mice, Rats and Dogs to determine the PK profile.

[3] = Pharmacokinetic evaluation in Dog; assay type: in vivo; conditions: for AUC(0-inf) / AUC(0-t) / Cmax / half-life / Tmax: in vivo, Dog; for half-life: read-out: T½ (converted)
Protocol: as §1

HCT-116 (colorectal) = HCT-116 (colorectal) xenograft model; assay type: in vivo, Mouse; conditions: nude mouse, 1 mg/kg, (4) cycles
Protocol: The efficacy of Aza-T-dCyd was confirmed by tumor growth curves after administration of Aza-T-dCyd in various solid cancer xenograft models. Aza-T-dCyd at a dose of 1~2 mg/kg was administered repeatedly for 2~6 cycles in QD×5, showing excellent anti-cancer effects (evidenced by test/control (T/C) value≤40%).

cytidine deaminase = test: Degradation by cytidine deaminase
From the text: Decitabine/Azacytidine is susceptible to metabolism by cytidine deaminases in the body, resulting in an unstable PK profile that limits its efficacy.

leukemia cell lines = test: Growth-inhibitory activity on leukemia cell lines (GI50); assay type: cell-based; conditions: leukemia cell lines, 72 hours, range over cell lines; read-out: GI50 values (half maximal growth inhibitory concentrations)
Protocol: The growth-inhibitory activity of Aza-T-dCyd, a DNMT1 inhibitor, was measured in leukemia cell lines to determine its inhibitory effect on cell proliferation.
The growth-inhibitory activity of DNMT1 inhibitors, Aza-T-dCyd and Decitabine, was measured on leukemia cell lines to determine their effect on cell proliferation.

DNMT1 = DNMT1 (Homo sapiens, UniProt P26358); test: Western blotting of Molm13 xenograft cancer tissues, DNMT1; assay type: in vivo; design: endogenous in cells; conditions: after administration
DNMT1, sequence (P26358 whole entry): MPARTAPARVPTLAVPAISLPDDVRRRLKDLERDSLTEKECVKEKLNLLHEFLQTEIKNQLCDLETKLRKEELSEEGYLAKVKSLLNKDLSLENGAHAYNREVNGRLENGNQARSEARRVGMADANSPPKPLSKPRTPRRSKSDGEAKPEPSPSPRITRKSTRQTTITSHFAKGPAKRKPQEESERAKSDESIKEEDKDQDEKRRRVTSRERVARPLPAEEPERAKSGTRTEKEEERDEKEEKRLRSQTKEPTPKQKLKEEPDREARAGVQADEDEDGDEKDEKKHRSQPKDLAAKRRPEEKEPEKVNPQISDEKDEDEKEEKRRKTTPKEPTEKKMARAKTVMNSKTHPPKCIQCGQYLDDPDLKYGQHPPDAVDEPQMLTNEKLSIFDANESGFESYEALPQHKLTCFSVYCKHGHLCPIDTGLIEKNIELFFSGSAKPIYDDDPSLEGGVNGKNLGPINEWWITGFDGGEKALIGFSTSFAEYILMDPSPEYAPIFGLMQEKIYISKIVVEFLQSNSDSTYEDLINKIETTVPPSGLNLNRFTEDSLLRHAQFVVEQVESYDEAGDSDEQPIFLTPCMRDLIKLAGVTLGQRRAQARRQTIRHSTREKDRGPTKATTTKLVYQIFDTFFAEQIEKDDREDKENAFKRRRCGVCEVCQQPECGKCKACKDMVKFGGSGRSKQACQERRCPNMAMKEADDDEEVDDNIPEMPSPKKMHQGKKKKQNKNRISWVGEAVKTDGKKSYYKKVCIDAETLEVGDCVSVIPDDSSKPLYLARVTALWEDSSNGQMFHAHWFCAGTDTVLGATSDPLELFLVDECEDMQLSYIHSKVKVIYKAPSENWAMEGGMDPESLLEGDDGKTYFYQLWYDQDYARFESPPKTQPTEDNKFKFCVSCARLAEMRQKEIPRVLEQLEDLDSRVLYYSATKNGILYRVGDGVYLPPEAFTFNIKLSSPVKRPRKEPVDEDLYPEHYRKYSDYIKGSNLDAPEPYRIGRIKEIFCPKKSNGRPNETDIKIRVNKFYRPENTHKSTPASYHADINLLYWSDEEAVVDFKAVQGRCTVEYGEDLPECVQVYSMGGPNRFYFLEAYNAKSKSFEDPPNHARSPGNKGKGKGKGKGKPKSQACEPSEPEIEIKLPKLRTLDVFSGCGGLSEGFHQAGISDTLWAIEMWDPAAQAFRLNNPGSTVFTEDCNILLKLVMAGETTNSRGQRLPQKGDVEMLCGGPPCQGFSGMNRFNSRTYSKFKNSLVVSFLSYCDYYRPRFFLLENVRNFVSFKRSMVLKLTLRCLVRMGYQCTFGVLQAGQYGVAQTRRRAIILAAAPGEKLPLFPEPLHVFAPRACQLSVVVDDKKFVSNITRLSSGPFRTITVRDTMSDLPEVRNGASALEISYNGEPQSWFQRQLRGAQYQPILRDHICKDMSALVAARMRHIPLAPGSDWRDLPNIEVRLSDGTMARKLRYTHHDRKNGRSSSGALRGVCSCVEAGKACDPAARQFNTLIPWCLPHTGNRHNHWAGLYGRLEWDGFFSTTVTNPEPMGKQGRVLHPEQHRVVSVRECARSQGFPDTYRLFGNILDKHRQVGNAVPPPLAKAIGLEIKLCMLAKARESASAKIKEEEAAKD

[4] = Pharmacokinetic evaluation in Rat; assay type: in vivo; conditions: for AUC(0-inf) / AUC(0-t) / Cmax / half-life / Tmax: in vivo, Rat; for half-life: read-out: T½ (converted)
Protocol: as §1

HL-60 AML xenograft = HL-60 AML xenograft model; assay type: in vivo; conditions: 2.0 mg/kg
DNMT3A = DNMT3A expression in HL-60 xenograft tumor samples; assay type: in vivo, mice; conditions: 2 mg/kg NTX-301 intraperitoneally, day 11
Protocol: As the efficacy of DNMT1 inhibitors correlates with their selective profile for targeting DNMT1 and the de novo methyltransferases DNMT3A and DNMT3B, we confirmed the expression of DNMT1, DNMT3A, and DNMT3B in the Aza-T-dCyd and Decitabine treated groups in this xenograft model (FIG. 27).
In the HL-60 xenograft mice model, 2 mg/kg of NTX-301 (Aza-T-dCyd) or 0.75 mg/kg of Decitabine were administered intraperitoneally, and then tumor samples were collected on day 11 to determine the expression of DNMT1, DNMT3A, and DNMT3B. […] On the other hand, the expression levels of DNMT3A and DNMT3B were different in the Aza-T-dCyd and Decitabine treatment groups.

[5] = system: DNMT1 knock-out MV4-11 cells; test: Target engagement: cytotoxicity in DNMT1 knock-out MV4-11 cell line; assay type: cell-based; conditions: DNMT1 knock-out (siRNA) MV4-11, concentration-dependent treatment
From the text: This confirms that Aza-T-dCyd has potent pharmacological effects through DNMT1 (FIG. 18).

Compound: Nc1ncn([C@H]2CC(O)[C@@H](CO)S2)c(=O)n1 (some centres unmarked) [Aza-T-dCyd, 4′-thio-5-aza-2′-deoxycytidine]
- human AUC converted to the mouse AUC value (factor of 3-4) [1]: 150 to 200 ng·h/mL
- oral bioavailability ([2]; mice): orally bioavailable
- AUC(0-inf) ([2]; Table 3, IV 1 mg/kg): 269 ng·h/mL
- AUC(0-t) ([2]; Table 3, IV 1 mg/kg): 257 ng·h/mL
- Cmax ([2]; Table 3, IV 1 mg/kg): 341 ng/mL
- Tmax ([2]; Table 3, IV 1 mg/kg): 4.98 min
- half-life ([2]; Table 3, IV 1 mg/kg): 30.2 min
- AUC(0-inf) ([2]; Table 3, PO 0.5 mg/kg): 68.5 ng·h/mL
- AUC(0-t) ([2]; Table 3, PO 0.5 mg/kg): 62.4 ng·h/mL
- Cmax ([2]; Table 3, PO 0.5 mg/kg): 51.8 ng/mL
- Tmax ([2]; Table 3, PO 0.5 mg/kg): 18 min
- half-life ([2]; Table 3, PO 0.5 mg/kg): 42.1 min
- AUC(0-inf) ([2]; Table 3, PO 1 mg/kg): 112 ng·h/mL
- AUC(0-t) ([2]; Table 3, PO 1 mg/kg): 106 ng·h/mL
- Cmax ([2]; Table 3, PO 1 mg/kg): 103 ng/mL
- Tmax ([2]; Table 3, PO 1 mg/kg): 18 min
- half-life ([2]; Table 3, PO 1 mg/kg): 37.7 min
- AUC(0-inf) ([2]; Table 3, PO 3 mg/kg): 931 ng·h/mL
- AUC(0-t) ([2]; Table 3, PO 3 mg/kg): 919 ng·h/mL
- Cmax ([2]; Table 3, PO 3 mg/kg): 576 ng/mL
- Tmax ([2]; Table 3, PO 3 mg/kg): 27 min
- half-life ([2]; Table 3, PO 3 mg/kg): 49.4 min
- AUC(0-inf) ([2]; Table 3, PO 10 mg/kg): 2600 ng·h/mL
- AUC(0-t) ([2]; Table 3, PO 10 mg/kg): 2580 ng·h/mL
- Cmax ([2]; Table 3, PO 10 mg/kg): 1930 ng/mL
- Tmax ([2]; Table 3, PO 10 mg/kg): 27 min
- half-life ([2]; Table 3, PO 10 mg/kg): 66.6 min
- oral bioavailability ([3]; dogs): orally bioavailable
- AUC(0-inf) ([3]; IV 0.33 mg/kg): 1130 ng·h/mL
- AUC(0-t) ([3]; IV 0.33 mg/kg): 1050 ng·h/mL
- Cmax ([3]; IV 0.33 mg/kg): 552 ng/mL
- half-life ([3]; IV 0.33 mg/kg): 135 min
- AUC(0-inf) ([3]; PO 0.15 mg/kg): 439 ng·h/mL
- AUC(0-t) ([3]; PO 0.15 mg/kg): 409 ng·h/mL
- Cmax ([3]; PO 0.15 mg/kg): 104 ng/mL
- Tmax ([3]; PO 0.15 mg/kg): 60 min
- half-life ([3]; PO 0.15 mg/kg): 112 min
- AUC(0-inf) ([3]; PO 0.33 mg/kg): 880 ng·h/mL
- AUC(0-t) ([3]; PO 0.33 mg/kg): 790 ng·h/mL
- Cmax ([3]; PO 0.33 mg/kg): 210 ng/mL
- Tmax ([3]; PO 0.33 mg/kg): 40.2 min
- half-life ([3]; PO 0.33 mg/kg): 140 min
- AUC(0-inf) ([3]; PO 0.67 mg/kg): 1760 ng·h/mL
- AUC(0-t) ([3]; PO 0.67 mg/kg): 1570 ng·h/mL
- Cmax ([3]; PO 0.67 mg/kg): 463 ng/mL
- Tmax ([3]; PO 0.67 mg/kg): 49.8 min
- half-life ([3]; PO 0.67 mg/kg): 136 min
- AUC(0-inf) ([3]; PO 1.5 mg/kg): 3370 ng·h/mL
- AUC(0-t) ([3]; PO 1.5 mg/kg): 3200 ng·h/mL
- Cmax ([3]; PO 1.5 mg/kg): 882 ng/mL
- Tmax ([3]; PO 1.5 mg/kg): 40.2 min
- half-life ([3]; PO 1.5 mg/kg): 101 min
- AUC(0-inf) ([3]; PO 3.0 mg/kg): 5620 ng·h/mL
- AUC(0-t) ([3]; PO 3.0 mg/kg): 5380 ng·h/mL
- Cmax ([3]; PO 3.0 mg/kg): 1670 ng/mL
- Tmax ([3]; PO 3.0 mg/kg): 25 min
- half-life ([3]; PO 3.0 mg/kg): 99 min
- Optimal T/C (%) (test/control) (HCT-116 (colorectal)): 21%
- rate of degradation by cytidine deaminase (cytidine deaminase): slower rate of degradation by cytidine deaminase
- GI50 (leukemia cell lines): 14 to 690 nM
- DNMT1 in cancer tissues (Western blotting) (DNMT1): strongly inhibited DNMT1 and DNMT3B in a concentration-dependent manner
- AUC(0-inf) ([4]; IV 1 mg/kg): 1900 ng·h/mL
- AUC(0-t) ([4]; IV 1 mg/kg): 1330 ng·h/mL
- Cmax ([4]; IV 1 mg/kg): 444 ng/mL
- half-life ([4]; IV 1 mg/kg): 301 min
- AUC(0-inf) ([4]; PO 0.5 mg/kg): 303 ng·h/mL
- AUC(0-t) ([4]; PO 0.5 mg/kg): 190 ng·h/mL
- Cmax ([4]; PO 0.5 mg/kg): 33.8 ng/mL
- Tmax ([4]; PO 0.5 mg/kg): 2 h
- half-life ([4]; PO 0.5 mg/kg): 314 min
- AUC(0-inf) ([4]; PO 1 mg/kg): 790 ng·h/mL
- AUC(0-t) ([4]; PO 1 mg/kg): 459 ng·h/mL
- Cmax ([4]; PO 1 mg/kg): 81.9 ng/mL
- Tmax ([4]; PO 1 mg/kg): 1.17 h
- half-life ([4]; PO 1 mg/kg): 378 min
- AUC(0-inf) ([4]; PO 3 mg/kg): 2800 ng·h/mL
- AUC(0-t) ([4]; PO 3 mg/kg): 2780 ng·h/mL
- Cmax ([4]; PO 3 mg/kg): 488 ng/mL
- Tmax ([4]; PO 3 mg/kg): 0.83 h
- half-life ([4]; PO 3 mg/kg): 207 min
- AUC(0-inf) ([4]; PO 10 mg/kg): 9240 ng·h/mL
- AUC(0-t) ([4]; PO 10 mg/kg): 9200 ng·h/mL
- Cmax ([4]; PO 10 mg/kg): 1320 ng/mL
- Tmax ([4]; PO 10 mg/kg): 2 h
- half-life ([4]; PO 10 mg/kg): 177 min
- oral bioavailability ([4]; rats): orally bioavailable
- tumor suppression (HL-60 AML xenograft): strong tumor suppression
- DNMT3A expression level in tumor samples (DNMT3A): not affected
- cytotoxicity in DNMT1 knock-out cell line [5]: decrease in cytotoxicity
